According to patent EP4745135A1 (Gluetacs Therapeutics (Shanghai) Co., Ltd., priority 2023, dated 2025):

Tests used:
IKZF1 = target: T1, IKZF1 (Homo sapiens, UniProt Q13422+Q96SW2); test: Western blot, degradation of substrate protein in hPBMCs; type: cell-based
T1 construct: effects of the compounds of the present disclosure on the expression of target proteins in cells; endogenous in cells; host or cells: human PBMCs (Milecell Biotechnologies)
Method: (§1) Conventional Western blot assay was performed to evaluate the effects of the compounds of the present disclosure on the expression of target proteins in cells. • (1) Cell Seeding and Protein Harvesting: Human peripheral blood mononuclear cells (hPBMCs) at a density of 1×10^6 cells/mL were thawed according to the PBMC Recovery Protocol (Milecell Biotechnologies Inc, Shanghai). […] After 24 hours of compounds treatment, cells were harvested and lysed in RIPA protein lysate containing protease inhibitors on ice for 30 min, followed by centrifugation. The supernatant was aspirated as the extracted total cell protein. The protein concentration of the supernatant was determined using the conventional BCA (Bicinchoninic Acid) assay. • (2) To the collected supernatant, 5X SDS sample loading buffer was added, followed by denaturation at 95°C for 5 minutes. The denatured samples were then separated by SDS-PAGE electrophoresis on a polyacrylamide gel, transferred onto a nitrocellulose membrane (0.45 µm NC membrane), blocked with blocking buffer at room temperature for 1 hour, and subjected to antibody incubation and development procedures according to the antibody manufacturer's instructions (Cell Signaling Technology Company).
(§2) Half-Maximal Degradation Concentration value (the drug concentration required for degrading proteins by 50%, abbreviated as DC50) reads method: comparing the grayscale values of Western blot bands from drug-treated samples with those from blank DMSO-treated controls, and identifying the drug concentration range at which the grayscale value is half that of the DMSO-treated control bands.
(§3) DC50 values can be calculated using ImageJ software to measure grayscale values of Western blot bands from drug-treated samples. The concentration-response curve is fitted to estimate the drug concentration corresponding to half the grayscale value.
(§4) Target protein remaining (%) refers to the percentage of target protein remaining in cells after treatment with protein degrader compounds.
(§5) Calculation method for target protein remaining (%): Use ImageJ software to measure grayscale values of Western blot bands from drug (protein degrader)-treated samples. The grayscale value of drug-treated bands is divided by that of internal control protein bands, and the resulting quotient is normalized to obtain the relative percentage of remaining target protein after protein degrader treatment.
(§6) Target protein degradation rate (%) = 1−target protein remaining (%). [formula]

WEE1 = target: T2, WEE1 (Homo sapiens, UniProt P30291+Q96SW2); test: as above; type: cell-based
T2 construct: effects of the compounds of the present disclosure on the expression of target proteins in cells; endogenous in cells; host or cells: human PBMCs (Milecell Biotechnologies)
Method: as §1, §2, §3, §4, §5, §6

CK1α = target: T3, CK1α (Homo sapiens, UniProt P48729+Q96SW2); test: as above; type: cell-based
T3 construct: effects of the compounds of the present disclosure on the expression of target proteins in cells; endogenous in cells; host or cells: human PBMCs (Milecell Biotechnologies)
Method: as §1, §2, §3, §4, §5, §6

IKZF2 = target: T4, IKZF2 (Homo sapiens, UniProt Q96SW2+Q9UKS7); test: as above; type: cell-based
T4 construct: effects of the compounds of the present disclosure on the expression of target proteins in cells; endogenous in cells; host or cells: human PBMCs (Milecell Biotechnologies)
Method: as §1, §2, §3, §4, §5, §6

IKZF3 = target: T5, IKZF3 (Homo sapiens, UniProt Q96SW2+Q9UKT9); test: as above; type: cell-based
T5 construct: effects of the compounds of the present disclosure on the expression of target proteins in cells; endogenous in cells; host or cells: human PBMCs (Milecell Biotechnologies)
Method: as §1, §2, §3, §4, §5, §6

GSPT1 = test: as above; type: cell-based, Human
Method: as §1, §2, §3, §4, §5, §6

[1] = target: T6, human Cereblon WT GST-tagged protein (Homo sapiens, UniProt Q96SW2); test: CRBN-binding affinity, HTRF (CEREBLON BINDING kit)
T6 construct: purchased CISBIO 64BDCRBNPEH

[2] = Western blot, 24 hours of compound treatment, compounds tested at 50 nM and 500 nM (concentration for the table not stated)
[3] = 24 hours treatment, compounds at 50 nM and 500 nM (concentration behind the class not stated)

T3 sequence (P48729 whole entry): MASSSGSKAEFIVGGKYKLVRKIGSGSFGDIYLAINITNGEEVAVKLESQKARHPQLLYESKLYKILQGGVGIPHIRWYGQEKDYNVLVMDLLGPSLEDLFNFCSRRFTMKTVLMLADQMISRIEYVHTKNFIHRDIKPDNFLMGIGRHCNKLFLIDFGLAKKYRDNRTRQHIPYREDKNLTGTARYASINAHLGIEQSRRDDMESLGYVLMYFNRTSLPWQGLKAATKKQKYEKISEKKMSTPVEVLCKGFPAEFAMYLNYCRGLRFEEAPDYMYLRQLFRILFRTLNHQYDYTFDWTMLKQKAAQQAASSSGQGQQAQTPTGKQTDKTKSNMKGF
T3 sequence (Q96SW2 whole entry): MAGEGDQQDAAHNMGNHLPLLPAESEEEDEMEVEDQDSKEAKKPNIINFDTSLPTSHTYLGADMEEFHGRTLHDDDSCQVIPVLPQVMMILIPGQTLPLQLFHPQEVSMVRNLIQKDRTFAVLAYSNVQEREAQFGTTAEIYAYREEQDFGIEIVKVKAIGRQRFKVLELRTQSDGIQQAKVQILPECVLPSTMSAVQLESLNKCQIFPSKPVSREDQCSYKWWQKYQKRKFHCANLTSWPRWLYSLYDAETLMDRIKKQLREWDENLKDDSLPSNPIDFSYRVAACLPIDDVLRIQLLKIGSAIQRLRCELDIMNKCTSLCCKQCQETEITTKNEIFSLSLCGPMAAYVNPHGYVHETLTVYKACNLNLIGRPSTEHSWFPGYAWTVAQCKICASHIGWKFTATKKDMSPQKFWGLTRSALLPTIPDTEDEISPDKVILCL
T3 sequence (Q16531 whole entry partner): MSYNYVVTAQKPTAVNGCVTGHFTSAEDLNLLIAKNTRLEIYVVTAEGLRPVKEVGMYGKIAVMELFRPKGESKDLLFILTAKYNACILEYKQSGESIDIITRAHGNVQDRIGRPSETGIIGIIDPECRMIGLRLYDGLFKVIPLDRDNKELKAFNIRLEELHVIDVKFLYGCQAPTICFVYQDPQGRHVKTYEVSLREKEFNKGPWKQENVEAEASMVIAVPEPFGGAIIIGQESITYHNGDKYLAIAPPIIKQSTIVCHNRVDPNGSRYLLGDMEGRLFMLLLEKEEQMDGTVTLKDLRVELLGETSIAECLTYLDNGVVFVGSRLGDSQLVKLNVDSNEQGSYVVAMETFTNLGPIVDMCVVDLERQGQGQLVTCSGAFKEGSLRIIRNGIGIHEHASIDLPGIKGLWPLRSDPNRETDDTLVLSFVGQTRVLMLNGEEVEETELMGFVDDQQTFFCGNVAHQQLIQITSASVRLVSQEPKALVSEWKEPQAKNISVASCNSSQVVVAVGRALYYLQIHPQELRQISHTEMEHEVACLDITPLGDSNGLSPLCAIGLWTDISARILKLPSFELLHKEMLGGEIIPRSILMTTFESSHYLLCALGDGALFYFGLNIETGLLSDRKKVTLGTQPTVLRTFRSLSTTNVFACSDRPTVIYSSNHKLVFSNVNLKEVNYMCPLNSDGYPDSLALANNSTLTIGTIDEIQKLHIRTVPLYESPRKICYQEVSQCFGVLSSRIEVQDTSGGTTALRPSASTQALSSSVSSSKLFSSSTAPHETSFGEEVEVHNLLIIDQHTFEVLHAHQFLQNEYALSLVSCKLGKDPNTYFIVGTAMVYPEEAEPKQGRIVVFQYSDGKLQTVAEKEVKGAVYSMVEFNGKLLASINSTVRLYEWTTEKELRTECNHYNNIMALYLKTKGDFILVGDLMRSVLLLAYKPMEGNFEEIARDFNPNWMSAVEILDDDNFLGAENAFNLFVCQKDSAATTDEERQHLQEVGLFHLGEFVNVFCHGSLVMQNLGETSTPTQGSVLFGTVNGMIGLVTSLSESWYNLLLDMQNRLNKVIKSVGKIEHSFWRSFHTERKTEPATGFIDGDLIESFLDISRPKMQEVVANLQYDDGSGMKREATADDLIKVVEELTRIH
T5 sequence (Q9UKT9 whole entry): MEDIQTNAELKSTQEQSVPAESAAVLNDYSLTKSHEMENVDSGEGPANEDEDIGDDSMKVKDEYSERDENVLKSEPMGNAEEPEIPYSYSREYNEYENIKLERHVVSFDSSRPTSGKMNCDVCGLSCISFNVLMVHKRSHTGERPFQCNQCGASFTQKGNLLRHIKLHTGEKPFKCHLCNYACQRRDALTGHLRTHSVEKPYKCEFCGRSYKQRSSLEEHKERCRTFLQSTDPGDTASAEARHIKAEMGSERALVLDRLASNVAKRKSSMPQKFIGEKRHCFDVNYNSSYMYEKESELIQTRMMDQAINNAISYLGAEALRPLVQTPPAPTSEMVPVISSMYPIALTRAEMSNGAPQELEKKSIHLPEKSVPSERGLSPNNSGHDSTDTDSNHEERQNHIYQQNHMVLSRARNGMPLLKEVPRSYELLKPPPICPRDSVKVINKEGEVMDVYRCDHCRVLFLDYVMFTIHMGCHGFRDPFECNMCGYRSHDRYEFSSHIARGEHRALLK
T5 sequence (Q96SW2 whole entry): as the sequence (Q96SW2 whole entry) above
T5 sequence (Q16531 whole entry partner): as the sequence (Q16531 whole entry partner) above
T4 sequence (Q9UKS7 whole entry): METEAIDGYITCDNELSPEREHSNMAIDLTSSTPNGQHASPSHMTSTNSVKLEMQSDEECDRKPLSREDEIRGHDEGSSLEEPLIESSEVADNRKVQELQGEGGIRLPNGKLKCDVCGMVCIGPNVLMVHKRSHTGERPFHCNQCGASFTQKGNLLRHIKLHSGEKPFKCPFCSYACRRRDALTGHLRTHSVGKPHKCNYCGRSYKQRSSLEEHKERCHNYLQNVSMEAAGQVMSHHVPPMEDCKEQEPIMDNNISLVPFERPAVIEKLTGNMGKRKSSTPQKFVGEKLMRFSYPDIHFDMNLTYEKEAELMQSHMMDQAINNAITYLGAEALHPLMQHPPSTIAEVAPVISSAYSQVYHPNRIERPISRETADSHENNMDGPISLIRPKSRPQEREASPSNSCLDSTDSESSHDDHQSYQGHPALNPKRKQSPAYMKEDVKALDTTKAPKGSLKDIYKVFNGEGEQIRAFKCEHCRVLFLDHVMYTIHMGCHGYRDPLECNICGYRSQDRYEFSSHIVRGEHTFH
T4 sequence (Q96SW2 whole entry): as the sequence (Q96SW2 whole entry) above
T4 sequence (Q16531 whole entry partner): as the sequence (Q16531 whole entry partner) above
T2 sequence (P30291 whole entry): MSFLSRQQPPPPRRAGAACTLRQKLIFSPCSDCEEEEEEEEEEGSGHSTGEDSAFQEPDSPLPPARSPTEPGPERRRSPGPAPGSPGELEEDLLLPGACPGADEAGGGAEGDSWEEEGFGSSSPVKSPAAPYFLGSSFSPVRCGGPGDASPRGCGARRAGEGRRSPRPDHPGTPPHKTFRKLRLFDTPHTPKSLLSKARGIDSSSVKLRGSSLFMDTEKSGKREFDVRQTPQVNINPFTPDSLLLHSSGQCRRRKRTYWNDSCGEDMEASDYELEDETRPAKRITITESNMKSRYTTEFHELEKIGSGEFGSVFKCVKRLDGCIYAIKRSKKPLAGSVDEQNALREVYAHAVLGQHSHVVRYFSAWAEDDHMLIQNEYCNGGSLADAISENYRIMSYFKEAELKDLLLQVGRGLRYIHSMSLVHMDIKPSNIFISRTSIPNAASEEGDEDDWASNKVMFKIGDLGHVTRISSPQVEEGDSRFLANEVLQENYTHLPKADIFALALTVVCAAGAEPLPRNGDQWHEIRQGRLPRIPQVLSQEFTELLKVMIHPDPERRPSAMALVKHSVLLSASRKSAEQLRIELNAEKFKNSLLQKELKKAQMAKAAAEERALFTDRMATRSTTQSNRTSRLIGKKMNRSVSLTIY
T2 sequence (Q96SW2 whole entry): as the sequence (Q96SW2 whole entry) above
T2 sequence (Q16531 whole entry partner): as the sequence (Q16531 whole entry partner) above
T1 sequence (Q13422 whole entry): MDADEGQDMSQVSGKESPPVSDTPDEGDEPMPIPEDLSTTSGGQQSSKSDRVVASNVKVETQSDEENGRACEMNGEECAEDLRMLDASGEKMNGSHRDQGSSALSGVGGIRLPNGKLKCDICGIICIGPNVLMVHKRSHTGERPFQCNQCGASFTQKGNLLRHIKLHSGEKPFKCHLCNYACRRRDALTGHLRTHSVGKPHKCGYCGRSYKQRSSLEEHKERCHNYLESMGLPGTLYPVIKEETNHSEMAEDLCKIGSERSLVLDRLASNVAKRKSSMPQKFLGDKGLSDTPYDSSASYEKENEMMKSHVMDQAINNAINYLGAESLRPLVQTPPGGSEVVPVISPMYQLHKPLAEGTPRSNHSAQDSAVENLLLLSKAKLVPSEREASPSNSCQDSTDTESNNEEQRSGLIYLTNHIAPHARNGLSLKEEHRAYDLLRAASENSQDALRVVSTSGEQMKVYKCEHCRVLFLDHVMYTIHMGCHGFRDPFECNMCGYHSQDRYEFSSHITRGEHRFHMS
T1 sequence (Q96SW2 whole entry): as the sequence (Q96SW2 whole entry) above
T1 sequence (Q16531 whole entry partner): as the sequence (Q16531 whole entry partner) above
T6 sequence (Q96SW2 whole entry): as the sequence (Q96SW2 whole entry) above

SMILES | IKZF 1 substrate protein remaining % (IKZF1; [2]) | Wee1 substrate protein remaining % (WEE1; [2]) | CK1α substrate protein remaining % (CK1α; [2]) | IKZF2 substrate protein remaining % (IKZF2; [2]) | IKZF3 substrate protein remaining % (IKZF3; [2]) | GSPT1 substrate protein remaining % (GSPT1; [2]) | IKZF 1 substrate protein remaining % (IKZF1; [3]) | Wee1 substrate protein remaining % (WEE1; [3]) | CK1α substrate protein remaining % (CK1α; [3]) | IKZF2 substrate protein remaining % (IKZF2; [3]) | IKZF3 substrate protein remaining % (IKZF3; [3]) | GSPT1 substrate protein remaining % (GSPT1; [3]) | inhibition at 0.5 µM ([1]; read-out: Inhibition Rate at 0.5 µM (%)) [%] | inhibition at 2 µM ([1]; read-out: Inhibition Rate at 2 µM (%)) [%]
O=C1CCC(N2Cc3c(CN4CCN(c5cccc(Cl)c5Cl)CC4)cccc3C2=S)C(=O)N1 (centres unmarked) [GT-08258, 3-(4-((4-(2,3-dichlorophenyl)piperazin-1-yl)methyl)-1-thioxoisoindolin-2-yl)piperidine-2,6-dione] | B (80%< substrate protein remaining %≤ 100%) | A (0% ≤ substrate protein remaining % ≤ 80%) | B (80%< substrate protein remaining %≤ 100%) | B (80%< substrate protein remaining %≤ 100%) | B (80%< substrate protein remaining %≤ 100%) | A (0% ≤ substrate protein remaining % ≤ 80%) |  |  |  |  |  |  |  | 
O=C1CCC(N2Cc3c(CN4CCN(c5ccc(C(F)(F)F)cn5)CC4)cccc3C2=S)C(=O)N1 (centres unmarked) [GT-08702, 3-(1-thioxo-4-((4-(5-(trifluoromethyl)pyridin-2-yl)piperazin-1-yl)methyl)isoindolin-2-yl)piperidine-2,6-dione] | B (80%< substrate protein remaining %≤ 100%) | A (0% ≤ substrate protein remaining % ≤ 80%) | B (80%< substrate protein remaining %≤ 100%) | B (80%< substrate protein remaining %≤ 100%) | B (80%< substrate protein remaining %≤ 100%) | B (80%< substrate protein remaining %≤ 100%) |  |  |  |  |  |  |  | 
O=C1CCC(N2Cc3c(CN4CCN(c5c(Cl)ccnc5Cl)CC4)cccc3C2=S)C(=O)N1 (centres unmarked) [GT-08725, 3-(4-((4-(2,4-dichloropyridin-3-yl)piperazin-1-yl)methyl)-1-thioxoisoindolin-2-yl)piperidine-2,6-dione] | B (80%< substrate protein remaining %≤ 100%) | A (0% ≤ substrate protein remaining % ≤ 80%) | B (80%< substrate protein remaining %≤ 100%) | B (80%< substrate protein remaining %≤ 100%) | B (80%< substrate protein remaining %≤ 100%) | A (0% ≤ substrate protein remaining % ≤ 80%) |  |  |  |  |  |  |  | 
O=C1CCC(N2Cc3c(CN4CC=C(c5cccc(Cl)c5Cl)CC4)cccc3C2=S)C(=O)N1 (centres unmarked) [GT-08270, 3-(4-((4-(2,3-dichlorophenyl)-3,6-dihydropyridin-1(2H)-yl)methyl)-1-thioxoisoindolin-2-yl)piperidine-2,6-dione] | B (80%< substrate protein remaining %≤ 100%) | A (0% ≤ substrate protein remaining % ≤ 80%) | B (80%< substrate protein remaining %≤ 100%) | B (80%< substrate protein remaining %≤ 100%) | B (80%< substrate protein remaining %≤ 100%) | A (0% ≤ substrate protein remaining % ≤ 80%) |  |  |  |  |  |  |  | 
CC(C)c1cc2c(N3CCN(Cc4cccc5c4CN(C4CCC(=O)NC4=O)C5=S)CC3)ncnc2s1 (centres unmarked) [GT-08915, 3-(4-((4-(6-isopropylthieno[2,3-d]pyrimidin-4-yl)piperazin-1-yl)methyl)-1-thioxoisoindolin-2-yl)piperidine-2,6-dione] |  |  |  |  |  |  | B (80%< substrate protein remaining %≤ 100%) | A (0% ≤ substrate protein remaining % ≤ 80%) | B (80%< substrate protein remaining %≤ 100%) | B (80%< substrate protein remaining %≤ 100%) | B (80%< substrate protein remaining %≤ 100%) | B (80%< substrate protein remaining %≤ 100%) |  | 
Cc1csc2ncnc(C3=CCN(Cc4cccc5c4CN(C4CCC(=O)NC4=O)C5=S)CC3)c12 (centres unmarked) [GT-08938, 3-(4-((4-(5-methylthieno[2,3-d]pyrimidin-4-yl)-3,6-dihydropyridin-1(2H)-yl)methyl)-1-thioxoisoindolin-2-yl)piperidine-2,6-dione] |  |  |  |  |  |  | B (80%< substrate protein remaining %≤ 100%) | A (0% ≤ substrate protein remaining % ≤ 80%) | B (80%< substrate protein remaining %≤ 100%) | B (80%< substrate protein remaining %≤ 100%) | B (80%< substrate protein remaining %≤ 100%) | B (80%< substrate protein remaining %≤ 100%) |  | 
O=C1CCC(N2Cc3c(CN4CCC(c5cccc(F)c5Cl)CC4)cccc3C2=S)C(=O)N1 (centres unmarked) [GT-08321, 3-(4-((4-(2-chloro-3-fluorophenyl)piperidin-1-yl)methyl)-1-thioxoisoindolin-2-yl)piperidine-2,6-dione] |  |  |  |  |  |  | B (80%< substrate protein remaining %≤ 100%) | A (0% ≤ substrate protein remaining % ≤ 80%) | B (80%< substrate protein remaining %≤ 100%) | B (80%< substrate protein remaining %≤ 100%) | A (0% ≤ substrate protein remaining % ≤ 80%) | B (80%< substrate protein remaining %≤ 100%) |  | 
O=C1CCC(N2Cc3c(CN4CCC(c5nccc(Cl)c5Cl)CC4)cccc3C2=S)C(=O)N1 (centres unmarked) [GT-08457, 3-(4-((4-(3,4-dichloropyridin-2-yl)piperidin-1-yl)methyl)-1-thioxoisoindolin-2-yl)piperidine-2,6-dione] | B (80%< substrate protein remaining %≤ 100%) | A (0% ≤ substrate protein remaining % ≤ 80%) | B (80%< substrate protein remaining %≤ 100%) | B (80%< substrate protein remaining %≤ 100%) | B (80%< substrate protein remaining %≤ 100%) | B (80%< substrate protein remaining %≤ 100%) |  |  |  |  |  |  |  | 
Cc1ccccc1N1CCN(Cc2cccc3c2CN(C2CCC(=O)NC2=O)C3=S)CC1 (centres unmarked) [GT-08497, 3-(1-thioxo-4-((4-(o-tolyl)piperazin-1-yl)methyl)isoindolin-2-yl)piperidine-2,6-dione] | A (0% ≤ substrate protein remaining % ≤ 80%) | A (0% ≤ substrate protein remaining % ≤ 80%) | B (80%< substrate protein remaining %≤ 100%) | A (0% ≤ substrate protein remaining % ≤ 80%) | B (80%< substrate protein remaining %≤ 100%) | A (0% ≤ substrate protein remaining % ≤ 80%) |  |  |  |  |  |  |  | 
O=C1CCC(N2Cc3c(CN4CCN(c5ccccc5Br)CC4)cccc3C2=S)C(=O)N1 (centres unmarked) [GT-08267, 3-(4-((4-(2-bromophenyl)piperazin-1-yl)methyl)-1-thioxoisoindolin-2-yl)piperidine-2,6-dione] | B (80%< substrate protein remaining %≤ 100%) | A (0% ≤ substrate protein remaining % ≤ 80%) | B (80%< substrate protein remaining %≤ 100%) | B (80%< substrate protein remaining %≤ 100%) | B (80%< substrate protein remaining %≤ 100%) | A (0% ≤ substrate protein remaining % ≤ 80%) |  |  |  |  |  |  |  | 
Cc1cc2c(C3CCN(Cc4ccc5c(c4)CN(C4CCC(=O)NC4=O)C5=S)CC3)ncnc2s1 (centres unmarked) [GT-09305, 3-(5-((4-(6-methylthieno[2,3-d]pyrimidin-4-yl)piperidin-1-yl)methyl)-1-thioxoisoindolin-2-yl)piperidine-2,6-dione] |  |  |  |  |  |  |  |  |  |  |  |  | 60 to 80 | 80 to 100
